Measurements taken from US12227495B2, “Herbicidal compounds” (SYNGENTA CROP PROTECTION AG, priority 2018, dated 2025).

Columns and labels:
Format in all cases: in vivo
[1] = system: Amaranthus retoflexus (AMARE); assay: Post-emergence herbicide test, glasshouse, percentage damage; conditions: 1000 g/ha, evaluated after 13 days
In short: (§1)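 Damage was rated 13 days after spraying on a five-point scale (1=0-20% to 5=81-100%). The compound was applied at 500 g/ha unless stated otherwise, in acetone/water 50:50 plus 0.5% Tween 20, on day 1 (pre-emergence) or day 8 (post-emergence) after sowing. Plants were kept under glasshouse conditions of 24/16° C day/night and 14 h light.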

[2] = system: Echinochloa crus-galli (ECHCG); assay: as above; conditions: 1000 g/ha, evaluated after 13 days
In short: as §1

[3] = system: Ipomoea hederacea (IPOHE); assay: as above; conditions: 1000 g/ha, evaluated after 13 days
In short: as §1

Lolium perenne (LOLPE) [4] = assay: as above; conditions: 1000 g/ha, evaluated after 13 days
In short: as §1

Setaria faberi (SETFA) [5] = assay: as above; conditions: 1000 g/ha, evaluated after 13 days
In short: as §1

Solanum nigrum (SOLNI) [6] = assay: as above; conditions: 1000 g/ha, evaluated after 13 days
In short: as §1

[7] = system: Amaranthus retoflexus (AMARE); assay: Pre-emergence herbicide test, glasshouse, percentage damage; conditions: rate 1000 g/ha, evaluated after 13 days
In short: as §1

[8] = system: Echinochloa crus-galli (ECHCG); assay: as above; conditions: rate 1000 g/ha, evaluated after 13 days
In short: as §1

[9] = system: Ipomoea hederacea (IPOHE); assay: as above; conditions: rate 1000 g/ha, evaluated after 13 days
In short: as §1

Lolium perenne (LOLPE) [10] = assay: as above; conditions: rate 1000 g/ha, evaluated after 13 days
In short: as §1

Setaria faberi (SETFA) [11] = assay: as above; conditions: rate 1000 g/ha, evaluated after 13 days
In short: as §1

Solanum nigrum (SOLNI) [12] = assay: as above; conditions: rate 1000 g/ha, evaluated after 13 days
In short: as §1

Structure (SMILES) | percentage damage caused to the plant, AMARE [1] | percentage damage caused to the plant, ECHCG [2] | percentage damage caused to the plant, IPOHE [3] | percentage damage caused to the plant, LOLPE (Lolium perenne (LOLPE) [4]) | percentage damage caused to the plant, SETFA (Setaria faberi (SETFA) [5]) | percentage damage caused to the plant, SOLNI (Solanum nigrum (SOLNI) [6]) | Pre-emergence Test AMARE percentage damage (five point scale) [7] | Pre-emergence Test ECHCG percentage damage (five point scale) [8] | Pre-emergence Test IPOHE percentage damage (five point scale) [9] | Pre-emergence Test LOLPE percentage damage (five point scale) (Lolium perenne (LOLPE) [10]) | Pre-emergence Test SETFA percentage damage (five point scale) (Setaria faberi (SETFA) [11]) | Pre-emergence Test SOLNI percentage damage (five point scale) (Solanum nigrum (SOLNI) [12])
Fc1cnc(Oc2cccc(Br)c2-c2cc(C(F)F)no2)c(F)c1 [Compound A101] | 5 (5=81-100%) | 4 (4=61-80%) | 5 (5=81-100%) | 4 (4=61-80%) | 5 (5=81-100%) | 5 (5=81-100%) | 5 (5=81-100%) | 5 (5=81-100%) | 5 (5=81-100%) | 5 (5=81-100%) | 5 (5=81-100%) | 4 (4=61-80%)
N#Cc1ccc(Oc2cccc(Br)c2-c2cc(C(F)F)no2)nc1 [Compound A102] | 5 (5=81-100%) | 4 (4=61-80%) | 5 (5=81-100%) | 4 (4=61-80%) | 5 (5=81-100%) | 5 (5=81-100%) | 5 (5=81-100%) | 5 (5=81-100%) | 4 (4=61-80%) | 5 (5=81-100%) | 5 (5=81-100%) | 4 (4=61-80%)
Fc1cc(Br)cnc1Oc1cccc(Br)c1-c1cc(C(F)F)no1 [Compound A103] | 5 (5=81-100%) | 4 (4=61-80%) | 5 (5=81-100%) | 5 (5=81-100%) | 5 (5=81-100%) | 5 (5=81-100%) | 5 (5=81-100%) | 5 (5=81-100%) | 5 (5=81-100%) | 5 (5=81-100%) | 5 (5=81-100%) | 3 (3=41-60%)
Fc1cc(C(F)(F)F)cnc1Oc1cccc(Br)c1-c1cc(C(F)F)no1 [Compound A104] | 4 (4=61-80%) | 4 (4=61-80%) | 4 (4=61-80%) | 3 (3=41-60%) | 4 (4=61-80%) | 5 (5=81-100%) | 4 (4=61-80%) | 4 (4=61-80%) | 4 (4=61-80%) | 4 (4=61-80%) | 5 (5=81-100%) | 2 (2=21-40%)
N#Cc1cc(Cl)cnc1Oc1cccc(Br)c1-c1cc(C(F)F)no1 [Compound A105] | 5 (5=81-100%) | 4 (4=61-80%) | 5 (5=81-100%) | 4 (4=61-80%) | 5 (5=81-100%) | 5 (5=81-100%) | 5 (5=81-100%) | 5 (5=81-100%) | 5 (5=81-100%) | 5 (5=81-100%) | 5 (5=81-100%) | 5 (5=81-100%)
FC(F)c1cc(-c2c(Br)cccc2Oc2ccc(Br)cn2)on1 [Compound A106] | 5 (5=81-100%) | 4 (4=61-80%) | 4 (4=61-80%) | 5 (5=81-100%) | 5 (5=81-100%) | 5 (5=81-100%) | 4 (4=61-80%) | 5 (5=81-100%) | 3 (3=41-60%) | 5 (5=81-100%) | 5 (5=81-100%) | 3 (3=41-60%)
